Test results from patent US20240327364A1, “THERAPEUTIC TARGETING OF GPR68 TO INDUCE FERROPTOSIS” (University Of Maryland, Baltimore, priority 2023, published 2024).

Key:
Panc02 = assay: Liperfluo lipid peroxidation; format: cell-based, mouse; settings: OGM2 and ionizing radiation
Experimental: Where appropriate, ANOVA, or student's T-test were conducted in PRISM. Chi squared T(X) was used for Liperfluo analysis. A value T(X)>4 implies that the two distributions are different with a p<0.01 (99% confidence). For drug interaction and therapeutic interaction, the coefficient of drug interaction (CDI) was calculated as follows: CDI=AB/(A×B). According to the impact of each group, AB is the value of combined treatment and A or B is the value of the single agent group to control group.
Radiation, like OGM2, induces lipid peroxidation in addition to DNA damage. OGM was tested for its ability to sensitize lung and pancreatic cancers to radiation induced lipid peroxidation and ferroptosis. Cells were incubated at 37° C. in 5% CO2 in […] DMEM with DMSO, OGM2, or Erastin for 3 days. Then 2.5 μM Liperfluo in 3 ml fresh media was added and cells were incubated at 37° C. in 5% CO2 for 1 hour. Cells were then trypsinized, pelleted, and resuspended in cell sorting media (1% BSA and 1 mM EDTA in PBS pH 7.4). A BD LSR II was used to record Ten thousand events and the data processed with FlowJo v10.8. […] All treatments were highly significant with Chi-squared >4 indicating a p<0.01.

ERBB4 = target: T1, ERBB4 (Homo sapiens, UniProt Q15303); assay: KinomeScan; format: binding; settings: read-out: % Control
T1 construct: purchased DiscoveRx (Fremont, CA)

CDK7 = target: T2, CDK7 (Homo sapiens, UniProt P50613); assay: KinomeScan; format: binding; settings: read-out: % Control
T2 construct: purchased DiscoveRx (KinomeScan service)

[1] = target: T3, RSK4(Kin Dom.1-N-terminal) (Homo sapiens, UniProt Q9UK32); assay: KinomeScan; format: binding; settings: read-out: % Control
T3 construct: RSK4(Kin Dom.1-N-terminal); purchased DiscoveRx (Fremont, CA)

LIMK2 = target: T4, LIMK2 (Homo sapiens, UniProt P53671); assay: KinomeScan; format: binding; settings: read-out: % Control
T4 construct: purchased DiscoveRx

ROCK2 = target: T5, ROCK2 (Homo sapiens, UniProt O75116); assay: KinomeScan; format: binding; settings: read-out: % Control
T5 construct: purchased DiscoveRx (Fremont, CA)

D4 = target: T6, D4 (Homo sapiens, UniProt P21917); assay: GPCR Profiler; format: cell-based
T6 construct: host or cells: Chem-1 cells expressing Gα15

ICK = target: T7, ICK (Homo sapiens, UniProt Q9UPZ9); assay: KinomeScan; format: binding; settings: read-out: % Control
T7 construct: purchased DiscoveRx (Fremont, CA)

FLT3(D835H) = target: T8, FLT3(D835H) (Homo sapiens, UniProt P36888, D835H); assay: KinomeScan; format: binding; settings: read-out: % Control
T8 construct: purchased DiscoveRx (Fremont, CA)

5-HT2C = target: T9, 5-HT2C (Homo sapiens, UniProt P28335); assay: GPCR Profiler; format: cell-based
T9 construct: host or cells: Chem-1 cells with promiscuous Gα15

V1A = target: T10, V1A (Homo sapiens, UniProt P37288); assay: GPCR Profiler; format: cell-based
T10 construct: host or cells: Chem-1 cells with Gα15

PIK3CA = target: T11, PIK3CA (Homo sapiens, UniProt P42336); assay: KinomeScan; format: binding; settings: read-out: % Control
T11 construct: purchased DiscoveRx (Fremont, CA)

PAK1 = target: T12, PAK1 (Homo sapiens, UniProt Q13153); assay: KinomeScan; format: binding; settings: read-out: % Control
T12 construct: purchased DiscoveRx

PDGFRA = target: T13, PDGFRA (Homo sapiens, UniProt P16234); assay: KinomeScan; format: binding; settings: read-out: % Control
T13 construct: purchased DiscoveRx (Fremont, CA)

RIOK2 = target: T14, RIOK2 (Homo sapiens, UniProt Q9BVS4); assay: KinomeScan; format: binding; settings: read-out: % Control
T14 construct: purchased DiscoveRx (Fremont, CA)

EPHB1 = target: T15, EPHB1 (Homo sapiens, UniProt P54762); assay: KinomeScan; format: binding; settings: read-out: % Control
T15 construct: purchased DiscoveRx (Fremont, CA)

CAMKK1 = target: T16, CAMKK1 (Homo sapiens, UniProt Q8N5S9); assay: KinomeScan; format: binding; settings: read-out: % Control
T16 construct: purchased DiscoveRx (KinomeScan service)

FGR = target: T17, FGR (Homo sapiens, UniProt P09769); assay: KinomeScan; format: binding; settings: read-out: % Control
T17 construct: purchased DiscoveRx (Fremont, CA)
T17 sequence (P09769 whole entry): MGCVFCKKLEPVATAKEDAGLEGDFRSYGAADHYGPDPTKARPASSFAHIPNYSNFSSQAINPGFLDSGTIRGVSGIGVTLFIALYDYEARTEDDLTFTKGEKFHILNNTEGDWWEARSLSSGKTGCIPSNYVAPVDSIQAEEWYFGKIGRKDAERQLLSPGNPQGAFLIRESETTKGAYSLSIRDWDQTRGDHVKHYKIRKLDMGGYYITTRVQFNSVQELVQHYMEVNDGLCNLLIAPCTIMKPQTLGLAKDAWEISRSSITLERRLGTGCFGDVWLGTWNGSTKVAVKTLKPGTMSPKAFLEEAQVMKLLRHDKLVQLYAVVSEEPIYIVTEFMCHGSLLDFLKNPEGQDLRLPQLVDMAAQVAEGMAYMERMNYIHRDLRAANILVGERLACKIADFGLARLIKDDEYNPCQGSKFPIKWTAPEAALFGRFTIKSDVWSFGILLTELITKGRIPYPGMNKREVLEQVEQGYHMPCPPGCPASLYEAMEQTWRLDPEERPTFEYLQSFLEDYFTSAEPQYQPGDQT

T9 sequence (P28335 33-458): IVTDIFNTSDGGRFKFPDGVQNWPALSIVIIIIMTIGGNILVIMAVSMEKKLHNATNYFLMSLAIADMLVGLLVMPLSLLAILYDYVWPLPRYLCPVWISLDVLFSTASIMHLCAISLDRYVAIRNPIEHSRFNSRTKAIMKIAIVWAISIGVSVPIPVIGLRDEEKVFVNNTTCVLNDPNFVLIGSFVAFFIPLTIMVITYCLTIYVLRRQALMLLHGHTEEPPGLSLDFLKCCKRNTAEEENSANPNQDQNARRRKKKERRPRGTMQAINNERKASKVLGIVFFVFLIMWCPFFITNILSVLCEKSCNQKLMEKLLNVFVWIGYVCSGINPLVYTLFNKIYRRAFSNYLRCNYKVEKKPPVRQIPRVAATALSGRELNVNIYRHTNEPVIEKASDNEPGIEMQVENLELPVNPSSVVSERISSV
T6 sequence (P21917 whole entry): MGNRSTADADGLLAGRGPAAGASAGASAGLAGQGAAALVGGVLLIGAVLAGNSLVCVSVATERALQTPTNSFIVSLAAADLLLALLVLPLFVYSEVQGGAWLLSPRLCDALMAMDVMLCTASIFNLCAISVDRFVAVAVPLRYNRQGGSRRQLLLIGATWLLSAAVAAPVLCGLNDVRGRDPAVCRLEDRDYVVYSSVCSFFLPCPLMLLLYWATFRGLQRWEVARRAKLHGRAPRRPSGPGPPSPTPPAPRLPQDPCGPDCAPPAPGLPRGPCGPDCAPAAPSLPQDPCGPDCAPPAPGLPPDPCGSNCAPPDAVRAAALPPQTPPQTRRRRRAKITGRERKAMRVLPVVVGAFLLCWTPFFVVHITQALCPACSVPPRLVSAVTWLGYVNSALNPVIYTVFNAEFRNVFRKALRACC
T10 sequence (P37288 whole entry): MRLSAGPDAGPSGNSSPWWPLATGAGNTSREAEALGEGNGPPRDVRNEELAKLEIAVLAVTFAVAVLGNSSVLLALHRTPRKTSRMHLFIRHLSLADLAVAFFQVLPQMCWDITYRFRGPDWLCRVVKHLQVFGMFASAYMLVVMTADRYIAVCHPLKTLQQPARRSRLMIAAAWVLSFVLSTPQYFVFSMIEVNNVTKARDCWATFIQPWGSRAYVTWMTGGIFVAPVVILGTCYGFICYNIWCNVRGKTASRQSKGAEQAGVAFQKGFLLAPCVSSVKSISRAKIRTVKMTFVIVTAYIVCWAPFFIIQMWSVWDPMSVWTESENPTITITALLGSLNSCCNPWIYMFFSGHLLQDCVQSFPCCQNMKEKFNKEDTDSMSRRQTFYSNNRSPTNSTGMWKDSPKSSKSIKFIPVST
T15 sequence (P54762 18-984): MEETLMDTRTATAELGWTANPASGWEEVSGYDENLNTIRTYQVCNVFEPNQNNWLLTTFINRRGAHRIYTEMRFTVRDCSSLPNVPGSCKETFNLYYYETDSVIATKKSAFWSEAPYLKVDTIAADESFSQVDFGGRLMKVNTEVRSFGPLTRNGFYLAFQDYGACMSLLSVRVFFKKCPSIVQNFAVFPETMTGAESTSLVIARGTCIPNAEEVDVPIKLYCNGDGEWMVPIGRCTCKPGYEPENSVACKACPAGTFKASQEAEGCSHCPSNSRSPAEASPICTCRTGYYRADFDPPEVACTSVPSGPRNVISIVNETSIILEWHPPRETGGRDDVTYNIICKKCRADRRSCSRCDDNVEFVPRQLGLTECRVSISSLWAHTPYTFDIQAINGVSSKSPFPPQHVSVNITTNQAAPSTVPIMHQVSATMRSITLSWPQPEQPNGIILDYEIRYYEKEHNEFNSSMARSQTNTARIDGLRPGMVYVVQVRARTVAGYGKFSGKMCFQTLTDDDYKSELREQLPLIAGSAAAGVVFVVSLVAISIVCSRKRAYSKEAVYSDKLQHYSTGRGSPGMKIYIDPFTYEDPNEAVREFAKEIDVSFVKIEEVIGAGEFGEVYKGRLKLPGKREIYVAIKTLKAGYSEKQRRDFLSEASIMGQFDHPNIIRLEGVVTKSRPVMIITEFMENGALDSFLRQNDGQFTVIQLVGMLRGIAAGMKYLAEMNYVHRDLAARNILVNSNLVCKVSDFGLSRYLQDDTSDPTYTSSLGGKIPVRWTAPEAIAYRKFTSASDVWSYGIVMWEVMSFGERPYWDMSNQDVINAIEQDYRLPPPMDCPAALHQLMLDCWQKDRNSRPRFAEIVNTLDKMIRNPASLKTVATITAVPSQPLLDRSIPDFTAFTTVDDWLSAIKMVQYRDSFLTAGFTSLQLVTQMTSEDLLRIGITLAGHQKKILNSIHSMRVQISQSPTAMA
T11 sequence (P42336 whole entry): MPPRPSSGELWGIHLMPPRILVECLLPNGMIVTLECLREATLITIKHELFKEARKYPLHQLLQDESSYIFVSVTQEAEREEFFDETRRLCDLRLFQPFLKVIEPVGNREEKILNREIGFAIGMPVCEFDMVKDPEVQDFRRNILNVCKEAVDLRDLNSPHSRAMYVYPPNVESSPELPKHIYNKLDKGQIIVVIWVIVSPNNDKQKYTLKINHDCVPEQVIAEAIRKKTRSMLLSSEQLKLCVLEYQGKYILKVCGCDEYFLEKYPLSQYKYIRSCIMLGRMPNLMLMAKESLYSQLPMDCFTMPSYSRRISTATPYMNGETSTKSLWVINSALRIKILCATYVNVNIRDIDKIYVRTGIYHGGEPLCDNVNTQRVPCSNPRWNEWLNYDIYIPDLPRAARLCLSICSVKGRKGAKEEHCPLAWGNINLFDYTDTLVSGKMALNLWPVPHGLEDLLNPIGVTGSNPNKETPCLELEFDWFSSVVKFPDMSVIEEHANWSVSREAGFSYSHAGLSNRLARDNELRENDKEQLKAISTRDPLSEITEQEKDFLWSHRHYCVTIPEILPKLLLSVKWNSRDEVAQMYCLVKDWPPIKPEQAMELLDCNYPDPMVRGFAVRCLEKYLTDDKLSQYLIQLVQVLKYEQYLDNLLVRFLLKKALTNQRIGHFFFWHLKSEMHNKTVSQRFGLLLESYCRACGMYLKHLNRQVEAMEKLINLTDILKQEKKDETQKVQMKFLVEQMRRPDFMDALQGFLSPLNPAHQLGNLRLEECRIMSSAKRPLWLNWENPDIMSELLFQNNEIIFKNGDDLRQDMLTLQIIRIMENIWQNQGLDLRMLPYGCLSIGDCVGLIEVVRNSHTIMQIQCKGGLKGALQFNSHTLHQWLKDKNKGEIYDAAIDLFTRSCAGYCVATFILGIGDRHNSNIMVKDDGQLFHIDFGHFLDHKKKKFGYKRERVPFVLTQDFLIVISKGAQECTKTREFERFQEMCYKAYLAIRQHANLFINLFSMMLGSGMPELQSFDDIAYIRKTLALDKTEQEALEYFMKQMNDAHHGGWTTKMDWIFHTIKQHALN
T14 sequence (Q9BVS4 whole entry): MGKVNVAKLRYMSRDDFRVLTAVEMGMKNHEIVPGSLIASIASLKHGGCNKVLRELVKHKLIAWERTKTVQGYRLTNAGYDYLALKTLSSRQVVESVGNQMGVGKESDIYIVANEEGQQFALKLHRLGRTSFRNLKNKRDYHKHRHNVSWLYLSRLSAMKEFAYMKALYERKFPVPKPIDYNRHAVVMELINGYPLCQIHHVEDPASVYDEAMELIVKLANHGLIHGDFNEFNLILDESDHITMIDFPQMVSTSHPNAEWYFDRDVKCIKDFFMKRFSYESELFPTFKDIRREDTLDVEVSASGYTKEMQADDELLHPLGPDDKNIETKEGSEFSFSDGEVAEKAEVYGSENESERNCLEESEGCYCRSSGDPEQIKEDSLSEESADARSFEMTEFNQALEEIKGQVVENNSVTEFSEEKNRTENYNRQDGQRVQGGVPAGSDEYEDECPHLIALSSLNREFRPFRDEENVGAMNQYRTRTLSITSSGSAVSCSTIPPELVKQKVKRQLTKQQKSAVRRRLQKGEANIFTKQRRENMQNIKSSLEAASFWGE
T12 sequence (Q13153 whole entry): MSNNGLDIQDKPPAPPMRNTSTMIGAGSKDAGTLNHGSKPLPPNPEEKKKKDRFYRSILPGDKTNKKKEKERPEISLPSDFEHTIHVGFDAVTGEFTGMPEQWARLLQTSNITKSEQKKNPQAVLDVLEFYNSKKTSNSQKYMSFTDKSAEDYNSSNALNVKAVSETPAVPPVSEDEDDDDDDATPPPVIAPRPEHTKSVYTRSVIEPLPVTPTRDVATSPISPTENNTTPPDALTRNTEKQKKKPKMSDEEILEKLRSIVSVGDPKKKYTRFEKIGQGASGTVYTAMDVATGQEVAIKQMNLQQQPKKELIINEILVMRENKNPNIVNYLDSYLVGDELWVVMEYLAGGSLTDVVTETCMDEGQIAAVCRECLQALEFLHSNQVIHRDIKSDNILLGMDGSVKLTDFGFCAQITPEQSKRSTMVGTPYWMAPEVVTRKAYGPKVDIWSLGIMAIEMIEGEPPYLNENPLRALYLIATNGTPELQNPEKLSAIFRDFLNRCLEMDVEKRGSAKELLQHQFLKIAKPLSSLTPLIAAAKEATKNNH

CCc1ccc2c(c1)C1(NN=C(c3ccccc3)S1)C(=O)N2 (stereo not drawn) [OGM2]
CDI, lipid peroxidation (Panc02): < 0.232

CCc1ccc2c(c1)C1(NN=C(c3cccc4ccccc34)S1)C(=O)N2 (stereo not drawn) [OGM1, 5-ethyl-5′-naphthalen-1-ylspiro[1H-indole-3,2′-3H-1,3,4-thiadiazole]-2-one]
remaining binding at 10 µM (ERBB4): 100% | remaining binding at 10 µM (CDK7): 64% | remaining binding at 10 µM [1]: 100% | remaining binding at 10 µM (LIMK2): 100% | remaining binding at 10 µM (ROCK2): 73% | Antagonism (D4; 10 uM): −16.3 | Agonism (D4; 12.5 uM): 0.6 | remaining binding at 10 µM (ICK): 81% | remaining binding at 10 µM (FLT3(D835H)): 100% | Antagonism (5-HT2C; 10 uM): −10.9 | Agonism (5-HT2C; 12.5 uM): 2.2 | Antagonism (V1A; 10 uM): 12.3 | Agonism (V1A; 12.5 uM): 0.1 | remaining binding at 10 µM (PIK3CA): 100% | remaining binding at 10 µM (PAK1): 70% | remaining binding at 10 µM (PDGFRA): 100% | remaining binding at 10 µM (RIOK2): 100% | remaining binding at 10 µM (EPHB1): 100% | remaining binding at 10 µM (CAMKK1): 86% | remaining binding at 10 µM (FGR): 100%
